Measured values as given in patent US6696498B2, “2-cyclopenten-1-one and its derivatives as inhibitors of the NF-kB factor” (Consiglio Nazionale Della Richerche, priority 1996, dated 2004).

What was measured:
NF-kB [1] = biological target: T1, NF-kB (Homo sapiens, UniProt P19838+Q04206); test: NF-kB activation after other types of stimulation (tumor necrosis factor alpha or viral infection) in different human cells; format: cell-based; settings: stimulation by tumor necrosis factor alpha or viral infection, data not shown
T1 construct: endogenous in cells; host or cells: Jurkat (human T lymphoid cell line)
T1 sequence (P19838 1-433 limits assumed): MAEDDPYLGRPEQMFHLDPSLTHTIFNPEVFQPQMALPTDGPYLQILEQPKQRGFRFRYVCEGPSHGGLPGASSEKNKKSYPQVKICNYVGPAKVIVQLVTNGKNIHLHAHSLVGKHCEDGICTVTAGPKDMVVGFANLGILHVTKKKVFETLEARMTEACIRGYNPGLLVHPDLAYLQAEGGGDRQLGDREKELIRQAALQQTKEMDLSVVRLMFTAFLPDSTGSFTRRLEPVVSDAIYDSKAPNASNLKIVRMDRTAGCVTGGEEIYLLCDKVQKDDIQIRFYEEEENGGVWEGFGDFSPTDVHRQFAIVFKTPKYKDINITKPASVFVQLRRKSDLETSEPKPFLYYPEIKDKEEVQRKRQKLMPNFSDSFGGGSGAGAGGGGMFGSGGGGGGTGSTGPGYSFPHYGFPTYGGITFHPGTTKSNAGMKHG
T1 sequence (Q04206 whole entry): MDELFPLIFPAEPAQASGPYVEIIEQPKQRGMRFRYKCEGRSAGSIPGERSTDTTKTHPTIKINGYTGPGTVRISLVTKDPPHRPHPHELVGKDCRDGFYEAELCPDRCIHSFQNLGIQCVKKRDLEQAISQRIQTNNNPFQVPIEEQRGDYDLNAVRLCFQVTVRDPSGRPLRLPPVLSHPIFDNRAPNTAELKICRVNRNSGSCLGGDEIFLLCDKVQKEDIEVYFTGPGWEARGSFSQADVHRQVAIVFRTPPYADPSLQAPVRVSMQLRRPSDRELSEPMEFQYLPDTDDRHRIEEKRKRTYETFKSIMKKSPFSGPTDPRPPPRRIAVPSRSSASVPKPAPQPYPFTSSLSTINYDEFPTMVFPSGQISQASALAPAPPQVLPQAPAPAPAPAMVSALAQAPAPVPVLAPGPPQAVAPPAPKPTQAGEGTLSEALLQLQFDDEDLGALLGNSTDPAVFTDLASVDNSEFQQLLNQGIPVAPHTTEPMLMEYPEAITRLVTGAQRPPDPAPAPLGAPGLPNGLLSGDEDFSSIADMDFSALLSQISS
Excerpt: (§1) Inhibition tests have been carried out in type T lymphoid human cells (Jurkat cell line), as well as in other human cell lines. NF-kB activation was stimulated with 12-o-tetradecanoyl-phorbol-13-acetate (TPA). 2-Cyclopenten-1-one was also effective in inhibiting NF-kB activation after other types of stimulation, including stimulation by tumor necrosis factor alpha or viral infection, and in different types of human cells (data not shown).

[2] = system: HSF (Heat Shock Transcription Factor); test: HSF activation in TPA-stimulated Jurkat cells, EMSA of whole-cell extracts; format: cell-based, human; settings: then TPA 25 ng/ml, extracts after 3 hours; for activation of HSF (specificity): 500 uM for 1 hour, FIG. 1D
Protocol: (§2) The cells were prepared according to the method described in C. Amici et al. (Cancer Research 55, 4452-4457, 1995).
(§3) The cells were treated with 2-cyclopenten-1-one at different concentrations (125-1000 μM) for 1 hour and then were stimulated with TPA (25 ng/ml).
(§4) After 3 hours the whole-cell extracts were prepared and subjected to EMSA (Electrophoretic Mobility Shift Assay) as described for NF-kB in U. Zabel et al. (J. Biol. Chem. 266: 242, 1991) and HSF in C. Amici et al. (Cancer Res. 55: 4452, 1995), to determine NF-kB and HSF activation respectively.
The positions of the complex HSF-DNA (HSF), the HSF-DNA constitutive activity (CHBA) and the proteins-DNA non-specific interactions (ns) are indicated in FIG. 1B. The line “econtrol” indicates the non-TPA-stimulated cells as a control of non-activated NF-kB.
(§5) The cells were treated for 1 hour with the same concentration (500 uM) of: 2-cyclopenten-1-one, cyclopentanone or cyclopentene, and then were stimulated with TPA (25 ng/ml). C represents the non-TPA-stimulated control. After 3 hours the whole-cell extracts were prepared and subjected to EMSA to verify the activation of NF-kB (FIG. 1C) and of HSF (FIG. 1D) respectively.

NF-kB [3] = biological target: T1, NF-kB; test: TPA-induced NF-kB activation in Jurkat cells, EMSA of whole-cell extracts; format: cell-based; settings: then TPA 25 ng/ml, extracts after 3 hours; for inhibition of TPA-induced NF-kB activation (specificity): 500 uM for 1 hour, FIG. 1C
Excerpt: as §1
The effect of the treatment with 2-cyclopenten-1-one on NF-kB activation by TPA has been tested in Jurkat cells by using the procedures described hereinbelow and shown in FIG. 1.
as §2, §3, §4, §5

SMILES	inhibition of NF-kB activation after other types of stimulation (NF-kB [1])	concentration from which activation of HSF is evident ([2]; 125-1000 μM for 1 hour, FIG. 1B) [µM]	inhibition of NF-kB activation by TPA (NF-kB [3]; 125 uM for 1 hour, FIG. 1A)	inhibition of TPA-induced NF-kB activation (specificity) (NF-kB [3])	NF-kB band (NF-kB-DNA complex) in EMSA (NF-kB [3]; 500 um for 1 hour, FIG. 1A)	activation of HSF (specificity) [2]
O=C1C=CCC1 [2-cyclopenten-1-one]	effective	≥ 125	able to inhibit	inhibits	absent	
O=C1CCCC1 [cyclopentanone, reference compound]				do not inhibit		do not activate
C1=CCCC1 [cyclopentene, reference compound]				do not inhibit		do not activate
